Laboratory results from the NIST ThermoML archive (doi:10.1016/j.jct.2012.08.026).
Numbers after ± are expanded uncertainties.

Conditions: 308.15 K, 101.33 kPa, Liquid; for viscosity: Capillary tube (Ostwald / Ubbelohde) method; for speed of sound: Pulse-echo method; for mass density: Vibrating tube method

Compound	viscosity	speed of sound	mass density
CCC(O)CO (stereo not given) [1,2-butanediol]	30.29 ± 0.56 mPa·s	1422.6 ± 3.7 m/s	988.25 ± 1.1 kg/m3
CC(O)CCO (stereo not given) [1,3-butanediol]	54.24 ± 1.1 mPa·s	1496 ± 3.2 m/s	991.28 ± 0.75 kg/m3
OCCCCO [1,4-butanediol]	47.38 ± 0.94 mPa·s	1577.8 ± 3.2 m/s	1003.95 ± 0.76 kg/m3
CC(O)C(C)O (stereo not given) [2,3-butanediol]	51.38 ± 1.1 mPa·s	1456.6 ± 3.7 m/s	990.72 ± 1.1 kg/m3
O=C1CCCN1 [2-pyrrolidinone]	8.922 ± 0.095 mPa·s	1600 ± 3.3 m/s	1097.14 ± 0.85 kg/m3
